The test system of series [1] is TZM-bl cells. The conditions noted are these: Table 2; uninfected TZM-bl cells; NA = no cytotoxicity at the test concentration.
Series [2] concerns HIV-1 NL4-3 virus. In words: Anti-HIV-1 activity, multicycle assay with HIV-1 NL4-3 in TZM-bl cells. The conditions noted are these: for SI (selectivity index, ratio of CC50/EC50): Table 1; for SI (selectivity index, ratio of CC50/EC50) / anti-HIV-1 activity (in words): TZM-bl cells; for anti-HIV-1 activity (in words): at the test concentration. Type of series: cell-based.
A short description of series [3]: in vitro. The conditions noted are these: human.
[4] abbreviates: Table 2, HIV-1 NL4-3, TZM-bl cells, NA = no anti-HIV-1 activity at the test concentration.
Setting [5] is: Caco-2, pH 7.4, Mean Papp A to B, Caco-2, 2 μM, 2 hours, pH 7.40.
Setting [6] is: Caco-2, pH 7.4, Rank Papp, Caco-2, A to B, permeability class.
The mark [7] stands for this setting: Caco-2, pH 7.4, apparent permeability (Papp), Caco-2 cells.
The mark [8] stands for this setting: Human immunodeficiency virus 1, NL43, TZM-bl.

From paper PMC7034945 (RSC Advances, 2019) come the findings set out here.

Broadly, the CC50 is the concentration that lowers cell viability or growth by half. High values mean better tolerance by the cells, low ones harm at low concentration. As usually defined, the EC50 is the concentration that produces a half-maximal response. Consider “N-((S)-3-(3,5-Difluorophenyl)-1-((4-methoxyphenyl)(methyl)amino)-1-oxopropan-2-yl)-3-(1-(2-(hydroxymethyl)-5-(5-methyl-2,6-dioxo-1,2,3,6-tetrahydropyridin-3-yl)tetrahydrofuran-3-yl)-1H-1,2,3-triazol-4-yl)benzamide [II-10o]”, for which the CC50 in series [1] is above 27.9 µM. For the same molecule, the EC50 in series [2] (setting [4]) was above 27.9 µM.
The molecule “3-(1-(2-(Hydroxymethyl)-5-(5-methyl-2,6-dioxo-1,2,3,6-tetrahydropyridin-3-yl)tetrahydrofuran-3-yl)-1H-1,2,3-triazol-4-yl)-N-((S)-1-((4-methoxyphenyl)(methyl)amino)-1-oxo-3-phenylpropan-2-yl)benzamide [III-15o]” returned a CC50 in series [1] above 29.4 µM. The molecule also returned an EC50 in series [2] (setting [4]) above 29.4 µM.
For orientation: Papp A→B means how fast a substance crosses the layer from the apical side. Regarding `CC(C)(C)NCC(O)COc1cccc2c1CC(O)C(O)C2` (stereo not drawn) [Nadolol], the values for the Papp A→B in series [3] (setting [5]), in series [3] (setting [6]) and in series [3] (setting [7]) were 0.08 ×10⁻⁶ cm/s, below 0.5 ×10⁻⁶ cm/s and 0.08 ×10⁻⁶ cm/s, respectively.
As to `COCCc1ccc(OCC(O)CNC(C)C)cc1` (stereo not drawn) [Metoprolol], the Papp A→B in series [3] (setting [5]) is 16.4 ×10⁻⁶ cm/s; in series [3] (setting [6]), above 2.5 ×10⁻⁶ cm/s; in series [3] (setting [7]), 16.4 ×10⁻⁶ cm/s.
`COc1ccc(N(C)C(=O)[C@H](Cc2ccccc2)NC(=O)c2cccc(-c3cn(Cc4cccc5ccccc45)nn3)c2)cc1` [III-15k, (S)-N-(1-((4-Methoxyphenyl)(methyl)amino)-1-oxo-3-phenylpropan-2-yl)-3-(1-(naphthalen-1-ylmethyl)-1H-1,2,3-triazol-4-yl)benzamide] registered an EC50 in series [2] (setting [8]) above 33.6 µM.
`COc1ccc(N(C)C(=O)[C@H](Cc2cc(F)cc(F)c2)NC(=O)c2cn(Cc3ccc(C(N)=O)cc3)nn2)cc1` [I-8s, (S)-1-(4-Carbamoylbenzyl)-N-(3-(3,5-difluorophenyl)-1-((4-methoxyphenyl)(methyl)amino)-1-oxopropan-2-yl)-1H-1,2,3-triazole-4-carboxamide] had an EC50 in series [2] (setting [8]) of 11.1 ± 2 µM. Also, the “SI (selectivity index, ratio of CC50/EC50)” value in series [2] is above 1.64.
For `COc1ccc(N(C)C(=O)[C@H](Cc2cc(F)cc(F)c2)NC(=O)c2cn(Cc3cccc4ccccc34)nn2)cc1` [I-8m, (S)-N-(3-(3,5-Difluorophenyl)-1-((4-methoxyphenyl)(methyl)amino)-1-oxopropan-2-yl)-1-(naphthalen-1-ylmethyl)-1H-1,2,3-triazole-4-carboxamide], in that order: 14.8 ± 3.24 µM and above 1.22.
For `COc1ccc(N(C)C(=O)[C@H](Cc2cc(F)cc(F)c2)NC(=O)c2cn(Cc3ccccc3[N+](=O)[O-])nn2)cc1` [I-8j, (S)-N-(3-(3,5-Difluorophenyl)-1-((4-methoxyphenyl)(methyl)amino)-1-oxopropan-2-yl)-1-(2-nitrobenzyl)-1H-1,2,3-triazole-4-carboxamide], in that order: 3.27 ± 0.78 µM and above 5.55.
For the molecule `COC(=O)CCCn1cc(-c2cccc(C(=O)N[C@@H](Cc3cc(F)cc(F)c3)C(=O)N(C)c3ccc(OC)cc3)c2)nn1` [II-10n, Methyl (S)-4-(4-(3-((3-(3,5-difluorophenyl)-1-((4-methoxyphenyl)(methyl)amino)-1-oxopropan-2-yl)carbamoyl)phenyl)-1H-1,2,3-triazol-1-yl)butanoate], the EC50 in series [2] (setting [8]) was above 33.8 µM. Moreover, the “anti-HIV-1 activity (in words)” value in series [2] is “lost anti-HIV-1 activity completely”.
As for “(S)-N-(1-((4-Methoxyphenyl)(methyl)amino)-1-oxo-3-phenylpropan-2-yl)-3-(1-(naphthalen-1-ylmethyl)-1H-1,2,3-triazol-4-yl)benzamide [III-15l]”, in series [2], the “anti-HIV-1 activity (in words)” value was “lost anti-HIV-1 activity completely”.
Take `COc1ccc(N(C)C(=O)[C@H](Cc2cc(F)cc(F)c2)NC(=O)c2cn(Cc3cccc([N+](=O)[O-])c3)nn2)cc1` [I-8k, (S)-N-(3-(3,5-Difluorophenyl)-1-((4-methoxyphenyl)(methyl)amino)-1-oxopropan-2-yl)-1-(3-nitrobenzyl)-1H-1,2,3-triazole-4-carboxamide]: it took 10 ± 1.76 µM to reach a half-maximal effect in series [2] (setting [8]) (EC50).
